Our source for the inhibition and IC50 values is ChEMBL document CHEMBL4819138, “Promising anti-SARS-CoV-2 drugs by effective dual targeting against the viral and host proteases” (Bioorg Med Chem Lett, 2021).

Each structure is given as a SMILES string. pIC50: −log10 of the molar value. Where only a bound is given, the exact number is not on record here.

For experiment [1], the target named is Replicase polyprotein 1ab (Severe acute respiratory syndrome coronavirus 2) (UniProt P0DTD1). As to the kind of experiment: Inhibition of SARS-CoV-2 papain-like protease at 100 microg/ml relative to control. To be noted: dose 100.0 µg/ml.
For experiment [2] the target is unchanged. As to the kind of experiment: Inhibition of SARS-CoV-2 main protease at 100 microg/ml relative to control. To be noted: dose 100.0 µg/ml.
The test system of a further experiment is SARS-CoV-2. As to the kind of experiment: Antiviral activity against SARS-CoV-2 NRC-03-nhCoV strain infected in Vero E6 cells. In kind it is functional, organism-based. To be noted: Severe acute respiratory syndrome coronavirus 2, NRC-03-nhCoV, Vero C1008.
Another experiment concerns Fibroblast. As to the kind of experiment: Cytotoxicity against human fibroblasts cells assessed as cell growth inhibition by MTT assay. The experiment is classed as cell-based.

As to `O=C(CSc1nnc(NC2CC2)s1)Nc1ccccc1C(=O)Nc1ccc2c(c1)OCO2`, the inhibition in experiment [1] is over 40%; in experiment [2], 26.4%. As to `COc1ccc(/C=C\C(=O)NC(=S)Nc2ccc(S(=O)(=O)NC(N)=O)cc2)cc1OC`, the inhibition in experiment [1] was over 40%. The same measure, in the same setting: under `COc1cc(CC(C)NCc2cc(NC(=O)c3ccccn3)cc(C(=O)N(C)C)c2)ccc1O` (configuration not stated) stands over 40%; under `CCOC(=O)C(Cc1c[nH]c2ccccc12)NC(=O)CCC(=O)Nc1ccc(S(N)(=O)=O)cc1` (configuration not stated), over 40%. Turning to `COc1cc(C(NC2=NC(=O)C(CC(=O)Nc3ccc(C(=O)O)cc3)S2)c2c(O)[nH]c(=O)[nH]c2=O)ccc1O` (configuration not stated), the pIC50 is 6.11 with SARS-CoV-2 and 5.78 in the experiment on Fibroblast. In addition, the figures for the inhibition in experiment [1] and in experiment [2] were 56.4% and 31%, respectively. As for `O=C(CSc1nnc2c(n1)[nH]c1ccccc12)Nc1cccc(S(=O)(=O)N2CCOCC2)c1`, the inhibition in experiment [1] is over 40%. Turning to `N=C(N/N=C/c1ccccc1O)c1nonc1NCNc1nonc1C(=N)N/N=C/c1ccccc1O`, the negative logarithm of the IC50 (pIC50) is 6.96 in the experiment on SARS-CoV-2 and 6.39 in the experiment with Fibroblast.

One may read the inhibition as the relative decrease from the control value, in per cent. A high value points to a response far below the control. By pIC50 is commonly meant −log10 of the IC50, conventionally taken in molar units.
